In patent US12331033B2, “Inhibitors of SARM1” (Disarm Therapeutics, Inc., priority 2020, dated 2025):

Biological target: SARM1 (ARM-SAM-TIR) (Homo sapiens (Human), UniProt Q6SZW1)
Assay: ARM-SAM-TIR SARM1 IC50 assay (NADase activity, NAD+ cleavage, RapidFire MS)
Format: biochemical
Conditions: ARM-SAM-TIR lysate 5 μg/mL, 2 h pre-incubation, 5 μM NAD+, 2 hr room temperature
Experimental: This Example describes an assay of ARM-SAM-TIR NADase activity and use of this assay to measure the efficacy of compounds of Formula I or Formula I′ to block SARM1 mediated NAD+ cleavage. This assay was optimized in such a way as to characterize the efficacy of the compounds in Formula I or Formula I′ to inhibit SARM1 activity and to calculate an IC50 value for each compound. This assay makes use of full length SARM1, which encompasses the ARM, SAM and TIR domains.
NRK1-HEK293T cells were seeded onto 150 cm^2 plates at 20×10^6 cells per plate. The next day, the cells were transfected with 15 μg ARM-SAM-TIR expression plasmid, SEQ ID NO: 1.
The cultures were supplemented with 1 mM NR at time of transfection to minimize toxicity from ARM-SAM-TIR overexpression. Forty-eight hours after transfection, cells were harvested, pelleted by centrifugation at 1,000 rpm (Sorvall ST 16R centrifuge, Thermo Fisher), and washed once with cold PBS (0.01 M phosphate buffered saline NaCl 0.138 M; KCl 0.0027 M; pH 7.4). The cells were resuspended in PBS with protease inhibitors (cOmplete™ protease inhibitor cocktail, Roche product #11873580001) and cell lysates were prepared by sonication (Branson Sonifer 450, output=3, 20 episodes of stroke). The lysates were centrifuged (12,000×g for 10 min at 4° C.) to remove cell debris and the supernatants (containing ARM-SAM-TIR protein) were stored at −80° C. for later use in the in vitro ARM-SAM-TIR NADase assay (see below). Protein concentration was determined by the Bicinchoninic (BCA) method and used to normalize lysate concentrations.
The enzymatic assay was performed in a 384-well polypropylene plate in Dulbecco's PBS buffer in a final assay volume of 20 μL. ARM-SAM-TIR lysate with a final concentration of 5 μg/mL was pre-incubated with the respective compound at 1% DMSO final assay concentration over 2 h at room temperature. The reaction was initiated by addition of 5 μM final assay concentration of NAD+ as substrate. After a 2 hr room temperature incubation, the reaction was terminated with 40 μL of stop solution of 7.5% trichloroactetic acid in acetonitrile. The NAD+ and ADPR concentrations were analyzed by a RapidFire High Throughput Mass Spectrometry System (Agilent Technologies, Santa Clara, Calif.) using an API4000 triple quadrupole mass spectrometer (AB Sciex Framingham, Mass.).

Chain of SARM1 (ARM-SAM-TIR) (Q6SZW1 other isoform, or with tags, fused parts or gaps): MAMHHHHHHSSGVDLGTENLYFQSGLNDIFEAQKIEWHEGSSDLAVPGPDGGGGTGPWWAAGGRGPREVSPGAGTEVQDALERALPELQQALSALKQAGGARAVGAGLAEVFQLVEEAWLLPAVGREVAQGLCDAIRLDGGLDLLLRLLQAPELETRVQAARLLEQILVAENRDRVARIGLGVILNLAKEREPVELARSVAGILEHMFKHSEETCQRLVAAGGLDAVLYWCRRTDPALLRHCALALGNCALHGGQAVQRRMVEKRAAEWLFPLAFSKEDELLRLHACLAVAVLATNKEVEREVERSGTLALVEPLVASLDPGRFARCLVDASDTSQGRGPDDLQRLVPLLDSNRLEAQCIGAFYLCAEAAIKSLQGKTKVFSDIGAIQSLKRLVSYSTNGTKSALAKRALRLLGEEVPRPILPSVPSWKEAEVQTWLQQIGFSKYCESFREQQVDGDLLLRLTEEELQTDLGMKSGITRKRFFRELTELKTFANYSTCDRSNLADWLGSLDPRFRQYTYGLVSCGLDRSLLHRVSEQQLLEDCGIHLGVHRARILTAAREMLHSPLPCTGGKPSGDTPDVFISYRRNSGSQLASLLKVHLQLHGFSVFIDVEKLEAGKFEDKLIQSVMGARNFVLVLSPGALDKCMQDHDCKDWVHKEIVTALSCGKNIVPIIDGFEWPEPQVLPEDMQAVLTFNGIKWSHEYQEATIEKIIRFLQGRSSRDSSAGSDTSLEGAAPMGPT

Row | SMILES | IC50
1 | CC(C)(C)c1ccc(CCC(=O)Nc2nnc(-c3ccncc3)[nH]2)cc1 [Example 78] | 5 to 15 µM
2 | N#Cc1ccc(CC(=O)Nc2nnc(-c3ccncc3)[nH]2)cc1 [Example 79] | 5 to 15 µM
3 | O=C(CN1C(=O)COc2ccccc21)Nc1nnc(-c2ccncc2)[nH]1 [Example 80] | 15 to 30 µM
4 | O=C(CCc1ccc(Cl)s1)Nc1nnc(-c2ccncc2)[nH]1 [Example 81] | < 5 µM
5 | N[C@H](Cc1ccc(Cl)cc1)C(=O)Nc1nnc(-c2ccncc2)[nH]1 [Example 82] | < 5 µM
6 | Cc1ccc(CCC(=O)Nc2nnc(-c3ccncc3)[nH]2)cn1 [Example 83] | 5 to 15 µM
7 | O=C(CCc1ccc(Cl)nc1)Nc1nnc(-c2ccncc2)[nH]1 [Example 84] | < 5 µM
8 | O=C(CCc1ccc(C(F)(F)F)cn1)Nc1nnc(-c2ccncc2)[nH]1 [Example 85] | 5 to 15 µM
9 | O=C(CCc1ccc(C(F)(F)F)nc1)Nc1nnc(-c2ccncc2)[nH]1 [Example 86] | < 5 µM
10 | O=C(CCc1cnc(C(F)(F)F)nc1)Nc1nnc(-c2ccncc2)[nH]1 [Example 87] | < 5 µM
11 | O=C(Nc1nnc(-c2ccncc2)[nH]1)[C@H]1CCc2ccccc2C1 [Example 88] | < 5 µM
12 | O=C(Nc1nnc(-c2ccncc2)[nH]1)[C@@H]1CCc2ccccc2C1 [Example 89] | 5 to 15 µM
13 | O=C(C[C@H]1CCCc2ccccc21)Nc1nnc(-c2ccncc2)[nH]1 [Example 90] | < 5 µM
14 | O=C(C[C@@H]1CCCc2ccccc21)Nc1nnc(-c2ccncc2)[nH]1 [Example 91] | < 5 µM
15 | O=C(NCc1ccc(Cl)cc1)Nc1nnc(-c2ccncc2)[nH]1 [Example 92] | < 5 µM
16 | C[C@@H](CC(=O)Nc1nnc(-c2ccncc2)[nH]1)c1ccccc1 [Example 93] | 15 to 30 µM
17 | C[C@H](CC(=O)Nc1nnc(-c2ccncc2)[nH]1)c1ccccc1 [Example 94] | 15 to 30 µM
18 | CC(Cc1ccccc1)C(=O)Nc1nnc(-c2ccncc2)[nH]1 (stereo not shown) [Example 95] | 5 to 15 µM
19 | CC(C)(Cc1ccccc1)C(=O)Nc1nnc(-c2ccncc2)[nH]1 [Example 96] | 5 to 15 µM
20 | O=C(CCc1ccc(C(F)F)cc1)Nc1nnc(-c2ccncc2)[nH]1 [Example 97] | < 5 µM
21 | CN(C(=O)CCc1ccccc1)c1nnc(-c2ccncc2)[nH]1 [Example 98] | 5 to 15 µM
22 | O=C(CCc1ccc(Cl)cc1)Nc1ncc(-c2ccncc2)s1 [Example 99] | 5 to 15 µM
23 | O=C(CCc1ccc(Cl)cc1)Nc1nnc(-c2ccncc2)o1 [Example 100] | > 30 µM
24 | O=C(CCc1ccc(Cl)c(Cl)c1)Nc1nnc(-c2ccncc2)[nH]1 [Example 101] | < 5 µM
25 | O=C(COc1ccc(Cl)cc1)Nc1nnc(-c2ccncc2)[nH]1 [Example 102] | 5 to 15 µM
26 | O=C(Nc1nnc(-c2ccncc2)[nH]1)[C@@H]1C[C@@H]1c1ccccc1 [Example 103] | 15 to 30 µM
27 | O=C(Nc1nnc(-c2ccncc2)[nH]1)[C@@H]1C[C@H]1c1ccccc1 [Example 104] | 5 to 15 µM

Row | SMILES | IC50
28 | O=C(CCc1ccc(Br)cc1)Nc1nnc(-c2ccncc2)[nH]1 [Example 105] | < 5 µM
29 | O=C(CCc1ccc(Cl)cn1)Nc1nnc(-c2ccncc2)[nH]1 [Example 106] | < 5 µM
30 | COc1ccccc1CCC(=O)Nc1nnc(-c2ccncc2)[nH]1 [Example 107] | < 5 µM
31 | COc1cccc(CCC(=O)Nc2nnc(-c3ccncc3)[nH]2)c1 [Example 108] | 5 to 15 µM
32 | O=C(CC1CCOc2ccccc21)Nc1nnc(-c2ccncc2)[nH]1 (stereo not shown) [Example 109] | < 5 µM
33 | Cn1nc(-c2ccncc2)nc1NC(=O)CCc1ccccc1 [Example 110] | > 30 µM
34 | Cn1nc(NC(=O)CCc2ccccc2)nc1-c1ccncc1 [Example 111] | > 30 µM
35 | O=C(CCc1ccncc1)Nc1nnc(-c2ccncc2)[nH]1 [Example 112] | 15 to 30 µM
36 | O=C(CCc1ccc(F)cc1Cl)Nc1nnc(-c2ccncc2)[nH]1 [Example 113] | < 5 µM
37 | O=C(CCc1ccc(Cl)cc1)Nc1cc(-c2ccncc2)[nH]n1 [Example 114] | < 5 µM
38 | O=C(CCc1ccc(Cl)cc1)Nc1nnc(-c2ccncc2)s1 [Example 115] | > 30 µM
39 | O=C(Nc1nnc(-c2ccncc2)[nH]1)C1Cc2ccccc2C1 [Example 116] | 5 to 15 µM
40 | O=C(CC1CCc2ccccc21)Nc1nnc(-c2ccncc2)[nH]1 (stereo not shown) [Example 117] | < 5 µM
41 | O=C(CCc1c(F)c(F)c(F)c(F)c1F)Nc1nnc(-c2ccncc2)[nH]1 [Example 118] | < 5 µM
42 | N#Cc1ccc(CCC(=O)Nc2nnc(-c3ccncc3)[nH]2)cc1 [Example 119] | < 5 µM
43 | O=C(CCc1ccc(OC(F)(F)F)cc1)Nc1nnc(-c2ccncc2)[nH]1 [Example 120] | < 5 µM
44 | CC(C)(CC(=O)Nc1nnc(-c2ccncc2)[nH]1)c1ccccc1 [Example 121] | 15 to 30 µM
45 | Cn1c(CCC(=O)Nc2nnc(-c3ccncc3)[nH]2)nc2ccccc21 [Example 122] | 15 to 30 µM
46 | O=C(CCc1cn2ccccc2n1)Nc1nnc(-c2ccncc2)[nH]1 [Example 123] | 15 to 30 µM
47 | O=C(CCc1ccc(C(F)(F)F)cc1)Nc1nnc(-c2ccncc2)[nH]1 [Example 124] | < 5 µM
48 | O=C(CCc1ccc(F)cc1)Nc1nnc(-c2ccncc2)[nH]1 [Example 125] | < 5 µM
49 | CS(=O)(=O)c1ccc(CCC(=O)Nc2nnc(-c3ccncc3)[nH]2)cc1 [Example 126] | 15 to 30 µM
50 | COc1ccc(CCC(=O)Nc2nnc(-c3ccncc3)[nH]2)cc1 [Example 127] | < 5 µM
51 | Cn1ccnc1CCC(=O)Nc1nnc(-c2ccncc2)[nH]1 [Example 128] | > 30 µM
52 | Cc1ccc(CCC(=O)Nc2nnc(-c3ccncc3)[nH]2)c(C)c1 [Example 129] | < 5 µM
53 | O=C(CCc1ccc2ccccc2c1)Nc1nnc(-c2ccncc2)[nH]1 [Example 130] | > 30 µM
54 | O=C(Nc1nnc(-c2ccncc2)[nH]1)C1CCc2ccccc2C1 (stereo not shown) [Example 131] | < 5 µM

Row | SMILES | IC50
55 | O=C(CC1CCCc2ccccc21)Nc1nnc(-c2ccncc2)[nH]1 (stereo not shown) [Example 132] | < 5 µM
56 | Cn1cc(CCC(=O)Nc2nnc(-c3ccncc3)[nH]2)cn1 [Example 133] | > 30 µM
57 | O=C(CCC1CCCCC1)Nc1nnc(-c2ccncc2)[nH]1 [Example 134] | 5 to 15 µM
58 | O=C(Nc1nc(-c2ccncc2)n[nH]1)c1ccccc1 [Example 135] | 5 to 15 µM
59 | O=C(CCc1ccc(Cl)cc1)Nc1nnc(-c2ccncc2)[nH]1 [Example 136] | < 5 µM
60 | O=C(CCc1cccc(Cl)c1)Nc1nnc(-c2ccncc2)[nH]1 [Example 137] | < 5 µM
61 | O=C(CCc1ccccc1Cl)Nc1nnc(-c2ccncc2)[nH]1 [Example 138] | < 5 µM
62 | Cc1ccc(CCC(=O)Nc2nnc(-c3ccncc3)[nH]2)cc1 [Example 139] | < 5 µM
63 | Cc1cccc(CCC(=O)Nc2nnc(-c3ccncc3)[nH]2)c1 [Example 140] | < 5 µM
64 | Cc1ccccc1CCC(=O)Nc1nnc(-c2ccncc2)[nH]1 [Example 141] | < 5 µM
65 | O=C(CCCc1ccccc1)Nc1nnc(-c2ccncc2)[nH]1 [Example 142] | 5 to 15 µM
66 | O=C(Cc1ccccc1)Nc1nnc(-c2ccncc2)[nH]1 [Example 143] | 15 to 30 µM
67 | CC(=O)Nc1nnc(-c2ccncc2)[nH]1 [Example 144] | > 30 µM
68 | O=C(COc1ccccc1)Nc1nnc(-c2ccncc2)[nH]1 [Example 145] | > 30 µM
69 | O=C(CCc1ccccc1)Nc1nnc(-c2ccncc2)[nH]1 [Example 146] | < 5 µM
70 | Nc1nnc(-c2ccncc2)[nH]1 [Example 147] | > 30 µM
71 | Cc1ccc(OCC(=O)Nc2nnc(-c3ccncc3)[nH]2)c(C)c1 [Example 149] | 15 to 30 µM
72 | [2H]C([2H])([2H])c1c(-c2ccncc2)n[nH]c1NC(=O)C([2H])([2H])C([2H])([2H])c1ccc(Cl)nc1 [Example 150] | < 5 µM
73 | Cc1c(-c2ccncc2)n[nH]c1NC(=O)CCc1cnc(Cl)c(F)c1 [Example 151] | < 5 µM
74 | Cc1c(-c2ccnnc2)n[nH]c1NC(=O)CCc1ccc(Cl)s1 [Example 152] | < 5 µM
75 | Cc1c(-c2ccncc2)n[nH]c1NC(=O)CCc1ccc(F)nc1 [Example 153] | < 5 µM
76 | Cc1c(-c2ccnnc2)n[nH]c1NC(=O)CCc1ccc(Cl)c(F)c1 [Example 154] | < 5 µM
77 | Cc1c(-c2ccnnc2)n[nH]c1NC(=O)CCc1ccc(Cl)cc1 [Example 155] | < 5 µM
78 | O=C(CCc1ccc(Cl)cc1)Nc1nnc(-c2ccncn2)[nH]1 [Example 156] | < 5 µM
79 | O=C(CCc1ccc(Cl)cc1)Nc1nnc(-c2ccns2)[nH]1 [Example 157] | < 5 µM
